Laboratory results taken from patent US6855730B2, “3-methylidenyl-2-indolinone modulators of protein kinase” (Sugen, Inc., priority 1998, dated 2005).
pIC50: −log10 of the molar value.

What was measured:
src protein kinase = target: T1, src protein kinase (Gallus gallus, UniProt P00523); assay: Biochemical SRC assay (phosphorylation of biotinylated peptide); settings: read-out: bio src IC50
T1 construct: host or cells: Schizosaccharomyces pombe SP200
Description: This assay is used to determine src protein kinase activity measuring phosphorylation of a biotinylated peptide as the readout.
Yeast transformed with src (Sugen, Inc., Redwood City, Calif.). • b. Cell lysates: Yeast cells expressing src are pelleted, washed once with water, re-pelleted and stored at −80° C. until use. • c. N-terminus biotinylated [sequence] is prepared by standard procedures well known to those skilled in the art. • d. DMSO: Sigma, St. Louis, Mo. • e. […] Vecastain ELITE ABC reagent: Vector, Burlingame, Calif. • h. […] S. Pombe strain SP200 (h-s leul.32 ura4 ade210) is grown as described and transformations are pRSP expression plasmids are done by the lithium acetate method (Superti-Furga, supra). Cells are grown in the presence of 1 μM thiamine to repress expression from the nmtl promoter or in the absence of thiamine to induce expression. • i. […] Turbo TMB-ELISA peroxidase substrate: Pierce Chemical.
Buffer Solutions • a. PBS (Dulbecco's Phosphate-Buffered Saline): GIBCO PBS, GIBCO Cat. #450-1300EB. • b. Blocking Buffer: 5% Non-fat milk (Carnation) in PBS. • c. Carbonate Buffer: Na2CO4 from Fischer, Cat. # S495, make up 100 mM stock solution. • d. Kinase Buffer: 1.0 ml (from 1M stock solution) MgCl2, 0.2 ml (from a 1M stock solution) MnCl2, 0.2 ml (from a 1M stock solution) DTT, 5.0 ml (from a 1M stock solution) HEPES, 0.1 ml TX-100, bring to 10 ml total volume with MilliQ H2O. • e. […] NaCl: Fischer Cat. # S271-10, Make up 5M stock solution with MilliQ H2O. • i. […] MgCl2: Fischer Cat. # M33-500, make up 1M stock solution with MilliQ H2O. • k. […] MnCl2: Fischer Cat. # M87-100, make up 1M stock solution with MilliQ H2O. • n. DTT: -Fischer Cat. # BP172-5. • o. […] Kinase Reaction Mixture: Amount per assay plate (100 wells): 1.0 ml Kinase Buffer, 200 λg GST-ζ, bring to final volume of 8.0 ml with MilliQ H2O. • q. […] Then add 1 drop of reagent B. Put tube on orbital shaker at room temperature and mix for 30 minutes.
Preparation of src Coated ELISA Plate. • 1. Coat ELISA plate with 0.5 μg/well anti-src mab in 100 μl of pH 9.6 sodium carbonate buffer, hold at 40° C. overnight. • 2. Wash wells once with PBS. • 3. […] Wash plate 5× with PBS. • 5. Add 10 μg/well of src transformed yeast lysates diluted in Lysis Buffer (0.1 ml total volume per well). (Amount of lysate may vary between batches.) Shake plate for 20 minutes at room temperature.
Preparation of Phosphotyrosine Antibody-coated ELISA Plate. • 1. 4G10 plate: coat 0.5 μg/well 4G10 in 100 μl PBS overnight at 4° C. and block with 150 μl of 5% milk in PBS for 30 minutes at room temperature.
Kinase Assay Procedure. • 1. Remove unbound proteins from plates and wash plates 5× with PBS. • 2. […] Wash plate 5× with TBST. • 10. Incubate with Vectastain ELITE ABC reagent (100 μl/well) for 30 min. at room temperature. • 11. Wash the wells 5× with TBST. • 12. Develop with Turbo TMB.

[1] = target: T2, 3T3 cell line genetically engineered to express human PDGF-R (Homo sapiens, UniProt P09619); assay: PDGF-induced BrdU incorporation assay; format: cell-based; settings: read-out: PDGF-Induced BrdU Incorp. IC50
T2 construct: expressed in transfected cells; host or cells: 3T3
Description: The general procedure is as follows: a compound is introduced to cells expressing the test kinase, either naturally or recombinantly, for a selected period of time after which, if the test kinase is a receptor, a ligand known to activate the receptor is added. […] The cellular/biologic assays described herein measure the amount of DNA made in response to activation of a test kinase, which is a general measure of a proliferative response. The general procedure for this assay is as follows: a compound is introduced to cells expressing the test kinase, either naturally or recombinantly, for a selected period of time after which, if the test kinase is a receptor, a ligand known to activate the receptor is added. After incubation at least overnight, a DNA labeling reagent such as Bromodeoxyuridine (BrdU) or 3H-thymidine is added. The amount of labeled DNA is detected with either an anti-BrdU antibody or by measuring radioactivity and is compared to control cells not contacted with a test compound.
PDGF-Induced BrdU Incorporation Assay
Protocol • (1) Cells are seeded at 8000 cells/well in DMEM, 10% CS, 2mM Gln in a 96 well plate. […] The negative control wells receive serum free DMEM with 0.1% BSA only, the positive control cells receive the ligand (PDGF) but no test compound. […] FixDenat solution is added (50 μ/well) and the plates are incubated at room temperature for 45 minutes on a plate shaker. • (6) The FixDenat solution is thoroughly removed by decanting and tapping the inverted plate on a paper towel. Milk is added (5% dehydrated milk in PBS, 200 μ/well) as a blocking solution and the plate is incubated for 30 minutes at room temperature on a plate shaker. • (7) The blocking solution is removed by decanting and the wells are washed once with PBS. Anti-BrdU-POD solution (1:100 dilution in PBS, 1% BSA) is added (100 μl/well) and the plate is incubated for 90 minutes at room temperature on a plate shaker. • (8) The antibody conjugate is thoroughly removed by decanting and rinsing the wells 5 times with PBS, and the plate is dried by inverting and tapping on a paper towel. • (9) TMB substrate solution is added (100 μl/well) and incubated for 20 minutes at room temperature on a plate shaker until color development is sufficient for photometric detection. • (10) The absorbance of the samples are measured at 410 nm (in “dual wavelength” mode with a filter reading at 490 nm, as a reference wavelength) on a Dynatech ELISA plate reader.

EGFR = EGFR (Homo sapiens, UniProt P00533); assay: EGFR assay (cellular ELISA, NIH 3T3/C7 cells); format: cell-based; set-up: expressed in transfected cells; host or cells: NIH 3T3/C7; settings: read-out: cell EGF IC50
Sequence of EGFR (P00533 25-1210): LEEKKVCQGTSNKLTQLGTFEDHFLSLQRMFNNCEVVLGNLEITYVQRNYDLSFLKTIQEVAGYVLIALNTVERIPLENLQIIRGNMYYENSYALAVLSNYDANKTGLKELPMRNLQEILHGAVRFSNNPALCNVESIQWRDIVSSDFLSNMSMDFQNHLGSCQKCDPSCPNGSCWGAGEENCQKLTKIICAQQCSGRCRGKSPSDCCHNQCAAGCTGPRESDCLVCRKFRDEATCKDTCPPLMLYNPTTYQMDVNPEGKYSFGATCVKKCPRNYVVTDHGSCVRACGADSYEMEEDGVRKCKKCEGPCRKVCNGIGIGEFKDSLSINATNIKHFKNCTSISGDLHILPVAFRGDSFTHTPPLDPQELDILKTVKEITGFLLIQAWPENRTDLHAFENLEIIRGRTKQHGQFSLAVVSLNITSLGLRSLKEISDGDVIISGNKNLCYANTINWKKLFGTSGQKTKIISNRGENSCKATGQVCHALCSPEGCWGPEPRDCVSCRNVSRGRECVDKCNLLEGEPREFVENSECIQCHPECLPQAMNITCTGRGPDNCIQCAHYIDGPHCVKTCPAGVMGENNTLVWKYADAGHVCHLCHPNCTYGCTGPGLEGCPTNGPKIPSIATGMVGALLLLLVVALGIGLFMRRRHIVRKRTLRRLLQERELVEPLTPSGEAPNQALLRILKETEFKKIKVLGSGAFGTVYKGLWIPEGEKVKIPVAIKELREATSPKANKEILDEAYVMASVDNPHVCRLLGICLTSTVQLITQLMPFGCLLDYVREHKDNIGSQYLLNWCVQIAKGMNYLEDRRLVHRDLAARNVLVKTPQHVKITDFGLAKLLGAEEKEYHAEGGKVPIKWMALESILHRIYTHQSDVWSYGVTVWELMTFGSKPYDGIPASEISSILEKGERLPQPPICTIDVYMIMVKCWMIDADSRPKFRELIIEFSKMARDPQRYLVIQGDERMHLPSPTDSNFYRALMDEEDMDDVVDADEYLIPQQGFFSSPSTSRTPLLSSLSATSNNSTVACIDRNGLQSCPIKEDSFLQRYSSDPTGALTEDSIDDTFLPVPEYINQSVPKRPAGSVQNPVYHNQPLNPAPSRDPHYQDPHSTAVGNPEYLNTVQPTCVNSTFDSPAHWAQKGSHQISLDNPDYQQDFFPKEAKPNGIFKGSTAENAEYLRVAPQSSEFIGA
Summary of the method: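 NIH 3T3/C7 cells expressing human EGFR, serum-starved (0.5% serum) ~40 h, treated with compound (1:200 of 10 mg/ml DMSO stock, 1% DMSO) then stimulated 5 min with 25 nM EGF. Lysate EGFR captured by antibody and phosphotyrosine detected by anti-Ptyr ELISA (OD 410 nm); % inhibition after negative-control subtraction.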

In the case of `Cc1ccc2c(c1)/C(=C/c1[nH]c3c(c1CCC(=O)O)CCCC3)C(=O)N2` [Example 194, 3-[2-(5-Methyl-2-oxo-1,2-dihydroindol-3-ylidenemethyl)-4,5,6,7-tetrahydro-1H-indol-3-yl]-propionic acid], the pIC50 (src protein kinase) was 4.69 and the pIC50 [1] was 4.85.
`COc1ccc2c(c1)/C(=C/c1[nH]cc(C)c1CCC(=O)O)C(=O)N2` [Example 222, 3-[2-(5-Methoxy-2-oxo-1,2-dihydroindol-3-ylidenemethyl)-4-methyl-1H-pyrrol-3-yl]-propionic acid] was tested, and the pIC50 (src protein kinase) was 5.24, the pIC50 [1] was less than 4.30 and the pIC50 (EGFR) was less than 4.00.
Compound `CNC(=O)CCc1c(/C=C2\C(=O)Nc3ccccc32)[nH]c2c1CCCC2` [Example 201, N-Methyl-3-[2-(2-oxo-1,2-dihydroindol-3-ylidenemethyl)-4,5,6,7-tetrahydro-1H-indol-3-yl]-propionamide] has a pIC50 [1] of 5.41 and a pIC50 (EGFR) of less than 4.00.
`O=C(O)CCc1c(/C=C2\C(=O)Nc3cc(-c4ccccc4)ccc32)[nH]c2c1CCCC2` [Example 206, 3-[2-(2-oxo-6-phenyl-1,2-dihydroindol-3-ylidenemethyl)-4,5,6,7-tetrahydro-1H-indol-3-yl]-propionic acid] was tested, and the pIC50 (src protein kinase) was 6.13.
Work on `COc1cccc(-c2ccc3c(c2)NC(=O)/C3=C\c2[nH]cc(C)c2CCC(=O)O)c1` [Example 223, 3-{2-[6-(3-Methoxyphenyl)-2-oxo-1,2-dihydro-indol-3-ylidenemethyl]-4-methyl-1H-pyrrol-3-yl}-propionic acid] yielded a pIC50 (src protein kinase) of 5.97.
In the case of `Cc1[nH]c2ccccc2c1/C=C1\C(=O)Nc2ccc(C(=O)O)cc21` [Example 182, 3-(2-Methyl-1H-indol-3-ylmethylene)-2-oxo-2,3-dihydro-1H-indole-5-carboxylic acid], the pIC50 (EGFR) was less than 4.00.
`Cc1c(/C=C2\C(=O)Nc3ccc(N)cc32)[nH]c2ccccc12` [Example 180, 5-Amino-3-(3-methyl-1H-indol-2-ylmethylene)-1,3-dihydroindol-2-one] gave a pIC50 (EGFR) of less than 4.00.
Work on `COc1ccc2c(c1)NC(=O)/C2=C\c1[nH]c2c(c1CCC(=O)O)CCCC2` [Example 196, 3-[2-(6-Methoxy-2-oxo-1,2-dihydroindol-3-ylidenemethyl)-4,5,6,7-tetrahydro-1H-indol-3-yl]-propionic acid] yielded a pIC50 (src protein kinase) of 4.95 and a pIC50 [1] of 5.52.
In the case of `Nc1ccc2c(c1)/C(=C/c1ccc3[nH]ccc3c1)C(=O)N2` [Example 179, 5-Amino-3-(1H-indol-5-ylmethylene)-1,3-dihydro-indol-2-one], the pIC50 (EGFR) was less than 4.00.
Work on `Cc1c[nH]c(/C=C2\C(=O)Nc3ccc(Cl)cc32)c1CCC(=O)O` [Example 216, 3-[2-(5-Chloro-2-oxo-1,2-dihydroindol-3-ylidenemethyl)-4-methyl-1H-pyrrol-3-yl]-propionic acid] yielded a pIC50 (src protein kinase) of 5.32 and a pIC50 (EGFR) of less than 4.00.
In the case of `COc1ccc2c(c1)NC(=O)/C2=C\c1[nH]cc(C)c1CCC(=O)O` [Example 217, 3-[2-(6-Methoxy-2-oxo-1,2-dihydroindol-3-ylidenemethyl)-4-methyl-1H-pyrrol-3-yl]-propionic acid], the pIC50 (src protein kinase) was 5.43, the pIC50 [1] was 5.06 and the pIC50 (EGFR) was less than 4.00.
`O=C(O)CCc1c(/C=C2\C(=O)Nc3ccc(Br)cc32)[nH]c2c1CCCC2` [Example 192, 3-[2-(5-Bromo-2-oxo-1,2-dihydroindol-3-ylidenemethyl)-4,5,6,7-tetrahydro-1H-indol-3yl]-propionic acid] was tested, and the pIC50 (src protein kinase) was 4.98 and the pIC50 [1] was 5.85.
Work on `CCOC(=O)c1c(C)[nH]c(/C=C2\C(=O)Nc3ccc(Br)cc32)c1CCC(=O)O` [Compound 114, 5-(5-Bromo-2-oxo-1,2-dihydroindol-3-ylidenemethyl)-4-(2-carboxyethyl)-2-methyl-1H-pyrrole-3-carboxylic acid ethyl ester] yielded a pIC50 (EGFR) of less than 4.00.
With `Cc1cc(CCC(=O)O)c(/C=C2\C(=O)Nc3ccc(Br)cc32)[nH]1` [Compound 116, 3-[2-(5-Bromo-2-oxo-1,2-dihydroindol-3-ylidenemethyl)-5-methyl-1H-pyrrol-3-yl]-propionic acid] the pIC50 (EGFR) was less than 4.00.
For `Cc1c[nH]c(/C=C2\C(=O)Nc3cccc(C)c32)c1CCC(=O)O` [Example 218, 3-[2-(4-Methyl-2-oxo-1,2-dihydroindol-3-ylidenemethyl)-4-methyl-1H-pyrrol-3-yl]-propionic acid], the pIC50 [1] was 4.61.
For `CNS(=O)(=O)c1ccc2c(c1)/C(=C/c1cc3ccccc3[nH]1)C(=O)N2` [Example 173, 3-(1H-Indol-2-ylmethylene)-2-oxo-2,3-dihydro-1H-indole-5-sulfonic acid methylamide], the pIC50 (EGFR) was less than 4.00.
In the case of `NS(=O)(=O)c1ccc2c(c1)/C(=C/c1c[nH]c3ccccc13)C(=O)N2` [Example 172, 3-(1H-Indol-3-ylmethylene)-2-oxo-2,3-dihydro-1H-indole-5-sulfonic acid amide], the pIC50 (EGFR) was less than 4.00.
`O=C(O)CCc1c(/C=C2\C(=O)Nc3ccccc32)[nH]c2c1CCCC2` [Example 190, 3-[2-(2-Oxo-1,2-dihydro-indol-3-ylidenemethyl)-4,5,6,7-tetrahydro-1H-indol-3-yl]-propionic acid] showed a pIC50 (src protein kinase) of 6.96 and a pIC50 [1] of 5.54.
`O=C1Nc2ccc(C(=O)O)cc2/C1=C/c1c[nH]c2ccccc12` [Example 174, 3-(1H-Indol-3-ylmethylene)-2-oxo-2,3-dihydro-1H-indole-5-carboxylic acid] showed a pIC50 (EGFR) of less than 4.00.
Compound `CC(C)NS(=O)(=O)c1ccc2c(c1)C(=Cc1[nH]c3c(c1CCC(=O)O)CCCC3)C(=O)N2` [Example 208, 3-[2-(5-Isopropylaminosulfonyl-2-oxo-1,2-dihydroindol-3-ylidenemethyl)-4,5,6,7-tetrahydro-1H-indol-3-yl]-propionic acid] has a pIC50 (src protein kinase) of 5.74 and a pIC50 (EGFR) of less than 4.00.
In the case of `COc1c(C(C)C)cc(/C=C2/C(=O)Nc3ccccc32)cc1C(C)C` [Example 1, 3-(3,5-Diisopropyl-4-methoxybenzylidene)-1,3-dihydroindol-2-one], the pIC50 (EGFR) was 4.34.
Work on `Cc1[nH]c2ccccc2c1/C=C1\C(=O)Nc2ccc(N)cc21` [Example 187, 5-Amino-3-(2-methyl-1H-indol-3-ylmethylene)-1,3-dihydroindol-2-one] yielded a pIC50 (EGFR) of less than 4.00.
In the case of `O=C(O)CCc1ccccc1/C=C1/C(=O)Nc2ccccc21` [Example 214, 3-[2-(2-Oxo-1,2-dihydroindol-3-ylidenemethyl)-phenyl]-propionic acid], the pIC50 (src protein kinase) was less than 4.00 and the pIC50 (EGFR) was less than 4.00.
Work on `CCOc1cccc(-c2ccc3c(c2)NC(=O)/C3=C\c2[nH]cc(C)c2CCC(=O)O)c1` [Example 224, 3-{2-[6-(3-Ethoxyphenyl)-2-oxo-1,2-dihydro-indol-3-ylidenemethyl]-4-methyl-1H-pyrrol-3-yl}-propionic acid] yielded a pIC50 (src protein kinase) of 5.94.
In the case of `NC(=O)CCc1c(/C=C2\C(=O)Nc3ccccc32)[nH]c2c1CCCC2` [Example 199, 3-[2-(2-Oxo-1,2-dihydroindol-3-ylidenemethyl)-4,5,6,7-tetrahydro-1H-indol-3-yl]-propionamide], the pIC50 [1] was 5.46 and the pIC50 (EGFR) was less than 4.00.
`COc1c(C(C)C)cc(/C=C2/C(=O)Nc3ccc(Cl)cc32)cc1C(C)C` [Example 2, 5-Chloro-3-(3,5-diisopropyl-4-methoxybenzylidene)-1,3-dihydroindol-2-one] was tested, and the pIC50 (EGFR) was less than 4.00.
`O=C1Nc2ccccc2/C1=C/c1[nH]c2c(c1CCC(=O)N1CCOCC1)CCCC2` [Example 200, 3-[3-(3-Morpholin-4-yl-3-oxopropyl)-4,5,6,7-tetrahydro-1H-indol-2-ylmethylene]-1,3-dihydroindol-2-one] was tested, and the pIC50 [1] was 5.07 and the pIC50 (EGFR) was less than 4.00.
Work on `CN(C)C(=O)CCc1c(/C=C2\C(=O)Nc3ccccc32)[nH]c2c1CCCC2` [Example 197, N,N-Dimethyl-3-[2-(2-oxo-1,2-dihydroindol-3-ylidenemethyl)-4,5,6,7-tetrahydro-1H-indol-3-yl]-propionamide] yielded a pIC50 [1] of 5.31 and a pIC50 (EGFR) of less than 4.00.
Work on `O=C1Nc2ccc(N=Cc3cc4ccccc4[nH]3)cc2C1=Cc1cc2ccccc2[nH]1` [Example 171, 3-(1H-indol-2-ylmethylene)-5-[(1H-indol-2-ylmethylene)-amino]-1,3-dihydroindol-2-one] yielded a pIC50 (EGFR) of less than 4.00.
With `O=C1Nc2ccc(C(=O)O)cc2/C1=C/c1ccc2[nH]ccc2c1` [Example 177, 3-(1H-Indol-5-ylmethylene)-2-oxo-2,3-dihydro-1H-indole-5-carboxylic acid] the pIC50 (EGFR) was less than 4.00.
`COc1cccc(-c2ccc3c(c2)NC(=O)/C3=C\c2[nH]c3c(c2CCC(=O)O)CCCC3)c1` [Example 204, 3-{2-[6-(3-Methoxyphenyl)-2-oxo-1,2-dihydro-indol-3-ylidenemethyl]-4,5,6,7-tetrahydro-1H-indol-3-yl}-propionic acid] was tested, and the pIC50 (src protein kinase) was 5.35 and the pIC50 (EGFR) was less than 4.00.
For `Cc1cccc2c1/C(=C/c1[nH]c3c(c1CCC(=O)O)CCCC3)C(=O)N2` [Example 193, 3-[2-(4-Methyl-2-oxo-1,2-dihydroindol-3-ylidenemethyl)-4,5,6,7-tetrahydro-1H-indol-3-yl]-propionic acid], the pIC50 (src protein kinase) was 4.31 and the pIC50 [1] was 4.87.
Compound `COc1ccc(-c2ccc3c(c2)NC(=O)/C3=C\c2[nH]c3c(c2CCC(=O)O)CCCC3)cc1` [Example 205, 3-{2-[6-(4-Methoxyphenyl)-2-oxo-1,2-dihydro-indol-3-ylidenemethyl]-4,5,6,7-tetrahydro-1H-indol-3-yl}-propionic acid] has a pIC50 (src protein kinase) of 5.87.
`Cc1c[nH]c(/C=C2\C(=O)Nc3ccc(Br)cc32)c1CCC(=O)O` [Example 220, 3-[2-(5-Bromo-2-oxo-1,2-dihydroindol-3-ylidenemethyl)-4-methyl-1H-pyrrol-3-yl]-propionic acid] gave a pIC50 (src protein kinase) of 5.19 and a pIC50 [1] of 5.07.
In the case of `O=C(O)CCc1c(/C=C2\C(=O)Nc3ncccc32)[nH]c2c1CCCC2` [Example 203, 3-[2-(2-Oxo-1,2-dihydropyrrolo[2,3-b]pyridin-3-ylidenemethyl)-4,5,6,7-tetrahydro-1H-indol-3-yl]-propionic acid], the pIC50 (EGFR) was less than 4.90.
